What all share (assay type): cell-based
Assay [1] has as its system Wnt activity (Sp5-Luc reporter, SW480 colon carcinoma cells). The experiment in a line: Screening assay for Wnt activity: Sp5-Luc reporter gene assay in SW480 cells. Particulars: Homo sapiens, 42 h incubation, luminescence. An outline of the steps:
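IC50 values come from variable-slope four-parameter fits of luciferase signal normalized to DMSO wells. Stable Sp5-Luc reporter SW480 colon carcinoma cells were exposed to compounds in a 3-fold dilution series (source plates from 10 mM stock) for forty-two hours at 37 °C.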
In general terms: In a reporter assay the amount or activity of a reporter protein is the signal.

For a further assay, the system named is ARPE-19 cells. Put plainly: Transdifferentiation of ARPE-19 cells into eye neuronal cells (PAX6 staining). To be noted: Homo sapiens, 40 hours, PAX6 antibody staining. Here is the method:
The above synthesized compounds were screened using ARPE-19 cells [a spontaneously arising retinal pigment epithelia (RPE) cell line] to determine their ability to transdifferentiate ARPE-19 into eye neuronal cells [photoreceptors].
ARPE-19 cells are cultured in standard culture medium containing Dulbecco's Modified Eagle's Medium and Ham's F12 Nutrient Mixture (DMEM/F12) mix (1:1)+GlutaMax with 1% penicillin-Streptomycin and 10% FBS (Fetal Bovine Serum). Cells are incubated at 37° C. with 5% CO2. Cells are trypsinized and plated onto 384-well pre-spotted plate at a density of 3000 cells/well in 50 uL of media. Plating media:DMEM/F12 (1:1)+3% charcoal filtered-FBS+GlutaMax+1% pen/Strep. Cells are incubated at 37° C. with 5% CO2. At 40 hours, cells were fixed for 15 min with 10% Buffered Formalin. Cells were then washed 3 times with PBS for 5 min each, permeablize using 0.3% Triton X-100 in 1×PBS for 30 min, block for 1 h with 2% BSA in 1×PBS with 0.1% Triton X-100. The primary antibody (1:100 PAX6 Santa Cruz Biotech; sc-81649) was diluted and 10 μL/well was added to the cells. The cells were incubated overnight at 4° C. The plates were washed 3× with PBS before applying the secondary antibody (goat Anti-mouse 488), shake for 1 h in complete darkness, aspirate secondary, add 10 μL of DAPI (diamidino-2-phenylindole) (1 μg/mL), shake for 10 min. Wash 3× in PBS and scan on Thermo Fisher Scientific cell-Insight CX5. Readings were normalized to DMSO only treated cells, and normalized activities were utilized for EC50 calculations using the dose-response log (activator) vs. response-variable slope (four parameters) nonlinear regression feature available in GraphPad Prism 5.0 or 6.0.

In assay [2] the test system is primary human fibroblasts derived from IPF patients (LL29 cells). Put plainly: Inhibition of fibrosis: TGF-β1-treated primary human fibroblasts from IPF patients (LL29), αSMA staining. Particulars: Fibroblast, 96 h, TGF-β1 20 ng/mL, 4 days, % αSMA-positive cells. An outline of the steps: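 […] (0.1% DMSO) on LL29 cells in F12 with 1% FBS, with TGF-β1 (20 ng/mL) added 1 h after plating; 4 days at 37 °C. SYTOX-positive dead cells were excluded and the % αSMA-positive cells was imaged, normalized to TGF-β1/DMSO wells, triplicates; EC50 by non-linear regression.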

Drawing on US10081631B2, “2-(1H-indazol-3-yl)-1H-imidazo[4,5-C]pyridine and therapeutic uses thereof” (Samumed, LLC, priority 2014, dated 2018), this text covers IC50 and EC50 for 23 compounds.

Each structure is given as a SMILES string.

`CN1CCN(c2nccc3[nH]c(-c4n[nH]c5ccc(-c6cnn(C7CC7)c6)cc45)nc23)CC1` [Compound 2284, 2-(5-(1-Cyclopropyl-1H-pyrazol-4-yl)-1H-indazol-3-yl)-4-(4-methylpiperazin-1-yl)-1H-imidazo[4,5-c]pyridine]: the midpoint of inhibition in assay [1], the IC50, lay at 0.09 µM. The EC50 in the assay on ARPE-19 cells worked out at 0.006 µM.
For `Cn1cc(-c2ccc3[nH]nc(-c4nc5c(N6CCOCC6)nccc5[nH]4)c3c2)cn1` [Compound 2280, 4-(2-(5-(1-Methyl-1H-pyrazol-4-yl)-1H-indazol-3-yl)-1H-imidazo[4,5-c]pyridin-4-yl)morpholine] the same measures were 0.015 µM and 0.002 µM.
Consider `O=C(Nc1cncc(-c2ccc3[nH]nc(-c4nc5c(-c6cccs6)nccc5[nH]4)c3c2)c1)C1CCCC1` [Compound 307, N-(5-(3-(4-(Thiophen-2-yl)-1H-imidazo[4,5-c]pyridin-2-yl)-1H-indazol-5-yl)pyridin-3-yl)cyclopentanecarboxamide], for which the IC50 in assay [1] is 0.0348 µM. For the same compound, the EC50 in assay [2] was found to be 0.422 µM.
For `c1ccc(-c2nccc3[nH]c(-c4n[nH]c5ccc(-c6cncc(CNCC7CCCC7)c6)cc45)nc23)nc1` [Compound 154, 1-Cyclopentyl-N-((5-(3-(4-(pyridin-2-yl)-1H-imidazo[4,5-c]pyridin-2-yl)-1H-indazol-5-yl)pyridin-3-yl)methyl)methanamine] the same measures were 0.061 µM and 0.061 µM.
On the same counts, the results for `Cc1ccc(-c2nccc3[nH]c(-c4n[nH]c5ccc(-c6cncc(CN7CCCCC7)c6)cc45)nc23)s1` [Compound 353, 4-(5-Methylthiophen-2-yl)-2-(5-(5-(piperidin-1-ylmethyl)pyridin-3-yl)-1H-indazol-3-yl)-1H-imidazo[4,5-c]pyridine] are 0.844 µM and 0.009 µM.
On the same counts, the results for `CC(=O)c1ccc(-c2nccc3[nH]c(-c4n[nH]c5ccc(-c6cccnc6)cc45)nc23)s1` [Compound 368, 1-(5-(2-(5-(Pyridin-3-yl)-1H-indazol-3-yl)-1H-imidazo[4,5-c]pyridin-4-yl)thiophen-2-yl)ethan-1-one] are < 0.001 µM and 0.014 µM.
As to `c1ccc(CNCc2cncc(-c3ccc4[nH]nc(-c5nc6c(-c7cccnc7)nccc6[nH]5)c4c3)c2)cc1` [Compound 101, N-Benzyl-1-(5-(3-(4-(pyridin-3-yl)-1H-imidazo[4,5-c]pyridin-2-yl)-1H-indazol-5-yl)pyridin-3-yl)methanamine], the IC50 in assay [1] worked out at 0.047 µM. Also, the EC50 in assay [2] came out at 2.43 µM.
For `CC(C)CC(=O)Nc1cncc(-c2ccc3[nH]nc(-c4nc5c(-c6ccc(F)s6)nccc5[nH]4)c3c2)c1` [Compound 314, N-(5-(3-(4-(5-Fluorothiophen-2-yl)-1H-imidazo[4,5-c]pyridin-2-yl)-1H-indazol-5-yl)pyridin-3-yl)-3-methylbutanamide] the same measures were 0.0447 µM and 0.665 µM.
For `CC(=O)c1ccc(-c2nccc3[nH]c(-c4n[nH]c5ccc(-c6cncc(NC(=O)C7CCCCC7)c6)cc45)nc23)s1` [Compound 386, N-(5-(3-(4-(5-Acetylthiophen-2-yl)-1H-imidazo[4,5-c]pyridin-2-yl)-1H-indazol-5-yl)pyridin-3-yl)cyclohexanecarboxamide] the same measures were 0.476 µM and 0.536 µM.
For `CN(C)c1cncc(-c2ccc3[nH]nc(-c4nc5c(-c6cccc(F)c6)nccc5[nH]4)c3c2)c1` [Compound 7, 5-(3-(4-(3-Fluorophenyl)-1H-imidazo[4,5-c]pyridin-2-yl)-1H-indazol-5-yl)-N,N-dimethylpyridin-3-amine] the same measures were 0.004 µM and 0.009 µM.
In assay [1], `Fc1cccc(-c2nccc3[nH]c(-c4n[nH]c5ccc(-c6cncc(OC7CCCCC7)c6)cc45)nc23)c1` [Compound 1775, 2-(5-(5-(Cyclohexyloxy)pyridin-3-yl)-1H-indazol-3-yl)-4-(3-fluorophenyl)-1H-imidazo[4,5-c]pyridine] gave an IC50 of 0.252 µM. This compound gave an EC50 in assay [2] of 0.009 µM.
On the same counts, the results for `NC1CN(c2cncc(-c3ccc4[nH]nc(-c5nc6c(-c7cccc(F)c7)nccc6[nH]5)c4c3)n2)C1` [Compound 1774, 1-(6-(3-(4-(3-Fluorophenyl)-1H-imidazo[4,5-c]pyridin-2-yl)-1H-indazol-5-yl)pyrazin-2-yl)azetidin-3-amine] are 0.171 µM and 0.102 µM.
For `O=C(Nc1cncc(-c2ccc3[nH]nc(-c4nc5c(-c6cccs6)nccc5[nH]4)c3c2)c1)C1CC1` [Compound 305, N-(5-(3-(4-(Thiophen-2-yl)-1H-imidazo[4,5-c]pyridin-2-yl)-1H-indazol-5-yl)pyridin-3-yl)cyclopropanecarboxamide] the same measures were 0.004 µM and 0.022 µM.
In assay [1], `CN1CCN(c2nccc3[nH]c(-c4n[nH]c5ccc(-c6cnn(C)c6)cc45)nc23)CC1` [Compound 1916, 2-(5-(1-Methyl-1H-pyrazol-4-yl)-1H-indazol-3-yl)-4-(4-methylpiperazin-1-yl)-1H-imidazo[4,5-c]pyridine] registered an IC50 of 0.065 µM. Besides, the EC50 in the assay on ARPE-19 cells turned out to be 0.0037 µM.
As for `Fc1cccc(-c2nccc3[nH]c(-c4n[nH]c5ccc(C6=CCNCC6)cc45)nc23)c1` [Compound 1770, 4-(3-Fluorophenyl)-2-(5-(1,2,3,6-tetrahydropyridin-4-yl)-1H-indazol-3-yl)-1H-imidazo[4,5-c]pyridine], the IC50 in assay [1] was 0.658 µM. Besides, the EC50 in assay [2] amounted to 9.99 µM.
In the case of `CN(C)Cc1cncc(-c2ccc3[nH]nc(-c4nc5c(-c6cccc(F)c6)nccc5[nH]4)c3c2)c1` [Compound 13, 1-(5-(3-(4-(3-Fluorophenyl)-1H-imidazo[4,5-c]pyridin-2-yl)-1H-indazol-5-yl)pyridin-3-yl)-N,N-dimethylmethanamine], the IC50 in assay [1] was determined as 0.001 µM. The EC50 in assay [2] was found to be 0.009 µM.
For `c1cc2[nH]c(-c3n[nH]c4ccc(-c5cncc(CNCC6CCCC6)c5)cc34)nc2c(-c2ccoc2)n1` [Compound 284, 1-Cyclopentyl-N-((5-(3-(4-(furan-3-yl)-1H-imidazo[4,5-c]pyridin-2-yl)-1H-indazol-5-yl)pyridin-3-yl)methyl)methanamine] the same measures were > 10 µM and 0.009 µM.
On the same counts, the results for `CC(C)CC(=O)Nc1cncc(-c2ccc3[nH]nc(-c4nc5c(-c6cccc(F)c6)nccc5[nH]4)c3c2)c1` [Compound 2, N-(5-(3-(4-(3-Fluorophenyl)-1H-imidazo[4,5-c]pyridin-2-yl)-1H-indazol-5-yl)pyridin-3-yl)-3-methylbutanamide] are 0.005 µM and 0.009 µM.
`CCNCc1cncc(-c2ccc3[nH]nc(-c4nc5c(-c6cc(F)cc(NCCN(C)C)c6)nccc5[nH]4)c3c2)c1` [Compound 422, N^1-(3-(2-(5-(5-((Ethylamino)methyl)pyridin-3-yl)-1H-indazol-3-yl)-1H-imidazo[4,5-c]pyridin-4-yl)-5-fluorophenyl)-N^2,N^2-dimethylethane-1,2-diamine] showed a 50% inhibitory concentration (IC50) in assay [1] of 0.108 µM. In assay [2], the EC50 was 0.108 µM.
`CCNCc1cncc(-c2ccc3[nH]nc(-c4nc5c(-c6ccoc6)nccc5[nH]4)c3c2)c1` [Compound 266, N-((5-(3-(4-(Furan-3-yl)-1H-imidazo[4,5-c]pyridin-2-yl)-1H-indazol-5-yl)pyridin-3-yl)methyl)ethanamine] had a concentration for half-maximal inhibition (IC50) in assay [1] of 0.036 µM. The midpoint of the response in assay [2], the EC50, lay at 0.009 µM.
In turn, `Fc1cncc(-c2ccc3[nH]nc(-c4nc5c(N6CCOCC6)nccc5[nH]4)c3c2)c1` [Compound 2275, 4-(2-(5-(5-Fluoropyridin-3-yl)-1H-indazol-3-yl)-1H-imidazo[4,5-c]pyridin-4-yl)morpholine] had a half-inhibitory concentration (IC50) in assay [1] of 0.08 µM. The compound further returned an EC50 with ARPE-19 cells of 0.0434 µM.
`CC(C)C(=O)Nc1cncc(-c2ccc3[nH]nc(-c4nc5c(-c6cccs6)nccc5[nH]4)c3c2)c1` [Compound 295, N-(5-(3-(4-(Thiophen-2-yl)-1H-imidazo[4,5-c]pyridin-2-yl)-1H-indazol-5-yl)pyridin-3-yl)isobutyramide] registered a concentration for half-maximal inhibition (IC50) in assay [1] of 0.0308 µM. The compound also had an EC50 in assay [2] of 0.186 µM.
Consider `O=C(Nc1cncc(-c2ccc3[nH]nc(-c4nc5c(-c6ccc(F)s6)nccc5[nH]4)c3c2)c1)C1CCC1` [Compound 332, N-(5-(3-(4-(5-Fluorothiophen-2-yl)-1H-imidazo[4,5-c]pyridin-2-yl)-1H-indazol-5-yl)pyridin-3-yl)cyclobutanecarboxamide], for which the midpoint of inhibition in assay [1], the IC50, lay at 0.0326 µM. Besides, the EC50 in assay [2] amounted to 0.363 µM.

Broadly, the IC50 is the concentration at which inhibition is half-maximal. A lower IC50 goes with higher potency. Broadly, the EC50 is the concentration needed to bring the measured effect to its halfway point.
